{"source": "patent US10555950B2", "about": "“Bile acid recycling inhibitors for treatment of obesity and diabetes” (Satiogen Pharmaceuticals, Inc., priority 2008, dated 2020)", "key": {"male db/db mice [1]": {"tested_on": "male db/db mice", "experiment": "In vivo assay for reduction in blood glucose levels (Example 6, Compound 100A with or without sitagliptin)", "details": "for reduction in plasma glucose from baseline: after 6 hours", "experimental": "FIG. 1 illustrates the change in plasma glucose level in diabetic db/db mice after oral administration of a combination of the ASBTI (−)-(3R,5R)-trans-3-butyl-3-ethyl-2,3,4,5-tetrahydro-7,8-dimethoxy-5-phenyl-1,4-benzothiazepine1,1-dioxide at doses of 0, 0.1, 1, 10 mg/kg and 30 mg/kg sitagliptin (DPP-IV inhibitor) and the ASBTI alone.\nFIG. 9 illustrates the change in body weight 24 h after administration of the ASBTI (−)-(3R,5R)-trans-3-butyl-3-ethyl-2,3,4,5-tetrahydro-7,8-dimethoxy-5-phenyl-1,4-benzothiazepine1,1-dioxide (100A) at doses of 0, 0.1, 1, 10 mg/kg in combination with 30 mg/kg sitagliptin (DPP-IV inhibitor) and the ASBTI alone.\nMale db/db mice 6-7 weeks (approx 30 g) were fasted for 2 h. A combination of (−)-(3R,5R)-trans-3-butyl-3-ethyl-2,3,4,5-tetrahydro-7,8-dimethoxy-5-phenyl-1,4-benzothiazepine 1,1-dioxide (Compound 100A) at doses of 0, 0.1, 1, 10, mg/kg in 10% of DMSO-water and 30 mg/kg sitagliptin (DPP-IV inhibitor) in a mixture of valine-pyrrolidine in water was administered orally to male db/db mice (n=7-10 per group). Blood sample (˜1 μl from tail for glucose level testing) was taken at t=−24 h, 0, 60, 180, 240, 300, 360 min and 24 h after administration."}, "diabetic db/db mice [2]": {"tested_on": "diabetic db/db mice", "experiment": "Oral Compound 100A/100B plus sitagliptin versus subcutaneous exenatide, blood glucose at 3 hours (Example 9)", "assay_type": "in vivo", "details": "FIG. 10"}, "plasma GLP-1 level": {"tested_on": "plasma GLP-1 level", "experiment": "Plasma GLP-1 levels in normal rats after oral ASBTI or metformin with DPP-IV inhibitor (Example 8)", "assay_type": "in vivo", "details": "for plasma GLP-1 level, ASBTI in combination with sitagliptin: oral 3, 30, 100 mg/kg + 30 mg/kg sitagliptin; for plasma GLP-1 level, ASBTI in combination with sitagliptin / plasma GLP-1 level, ASBTI alone: 0-5 h; for plasma GLP-1 level, ASBTI alone: oral 3, 30, 100 mg/kg", "experimental": "12-week-old male HSD rats were fasted for 16 h and given oral dose of 0, 3, 30, 100 mg/kg of the ASBTI 1-[4-[4-[(4R,5R)-3,3-dibutyl-7-(dimethylamino)-2,3,4,5-tetrahydro-4-hydroxy-1,1-dioxido-1-benzothiepin-5-yl]phenoxy]butyl]4-aza-1-azoniabicyclo[2.2.2]octane methane sulfonate (Synthesized by Nanosyn Inc., CA, USA) or metformin (Control, 0, 3, 30, 100, 300 mg/kg) in saline and a dose of 30 mg/kg sitaglipin in a mixture of valine-pyrrolidine in water (n=5 per group). Blood samples in volume of 0.6 ml for each time point were taken from the caudal vein with a heparinized capillary tube 0, 1, 3 and 5 h after the administration of compounds and plasma GLP-1 level were determined. Aprotinin and 10 μl of DPP-IV inhibitor per ml of blood were used for blood sample preservation during 10 min centrifugation and for storage at −70° C. or below. GLP-1 (Active pM) was tested by Millipore ELISA Kits (Millipore Corporation, 290 Concord Road, Billerica, Mass.)."}, "male db/db mice [3]": {"tested_on": "male db/db mice", "experiment": "In vivo assay for reduction in blood glucose levels (Example 7, Compound 100B with or without sitagliptin)", "details": "for reduction in plasma glucose from baseline: after 6 hours, oral", "experimental": "Male db/db mice 8-9 weeks (approx 40 g) were fasted for 2 h. A combination of 1-[4-[4-[(4R,5R)-3,3-dibutyl-7-(dimethylamino)-2,3,4,5-tetrahydro-4-hydroxy-1,1-dioxido-1-benzothiepin-5-yl]phenoxy]butyl]4-aza-1-azoniabicyclo[2.2.2]octane methane sulfonate (Compound 100B) at doses of 0, 3, 30, 100 mg/kg in saline-water and 30 mg/kg sitagliptin (DPP-IV inhibitor) in a mixture of valine-pyrrolidine in water was administered orally to male db/db mice (n=6-11 per group). Blood sample (˜1 μl from tail for glucose level testing) was taken at t=−24 h, 0, 1, 3, 4, 5, 6 h and 24 h after administration."}, "diabetic db/db mice [4]": {"tested_on": "diabetic db/db mice", "experiment": "Plasma glucose in diabetic db/db mice after oral metformin plus sitagliptin (FIG. 3)", "assay_type": "in vivo", "details": "combination of metformin and sitagliptin", "method": "FIG. 3 illustrates the change in plasma glucose level in diabetic db/db mice after oral administration of a combination of metformin at doses of 0, 3, 30, 100, 300 mg/kg and 30 mg/kg sitagliptin (DPP-IV inhibitor)."}, "[5]": {"details": "FIG. 6, 7, listed as 1-[4-[4-[(4R,5R)-3,3-dibutyl-7-(dimethylamino)-2,3,4,5-tetrahydro-4-hydroxy-1,1-"}}, "note": "“Also recorded” adds a separate entry of the source."}
{"smiles": "CCCC[C@]1(CC)CS(=O)(=O)c2cc(OC)c(OC)cc2[C@@H](c2ccccc2)N1", "values": [{"measurement": "change in body weight", "setting": "male db/db mice [1]; 24 h after administration, 0.1-10 mg/kg with 30 mg/kg sitagliptin and ASBTI alone, FIG. 9", "value": "Weight loss"}, {"measurement": "plasma glucose concentrations, ASBTI alone", "setting": "male db/db mice [1]; ASBTI alone, oral, FIG. 1", "value": "lowers plasma glucose concentrations"}, {"measurement": "reduction in plasma glucose from baseline", "setting": "male db/db mice [1]; 01 mg/kg (so in the source) + 30 mg/kg sitagliptin, oral", "value": 5.6, "unit": "%"}, {"measurement": "reduction in plasma glucose from baseline", "setting": "male db/db mice [1]; 1 mg/kg + 30 mg/kg sitagliptin, oral", "value": 15, "unit": "%"}, {"measurement": "reduction in plasma glucose from baseline", "setting": "male db/db mice [1]; 10 mg/kg + 30 mg/kg sitagliptin, oral", "value": 42.3, "unit": "%"}, {"measurement": "reduction of the elevated blood glucose levels", "setting": "male db/db mice [1]; single oral administration, 0.1-10 mg/kg in combination with 30 mg/kg sitagliptin, compared to sitagliptin alone or vehicle, FIG. 1", "value": "dose-dependent reduction of the elevated blood glucose levels"}]}
{"smiles": "CCCC[C@]1(CC)CS(=O)(=O)c2cc(OC)c(OC)cc2[C@@H](c2ccccc2)N1", "note": "(relative stereo) [Compound 100A, (−)-(3R,5R)-trans-3-butyl-3-ethyl-2,3,4,5-tetrahydro-7,8-dimethoxy-5-phenyl-1,4-benzothiazepine1,1-dioxide]", "values": [{"measurement": "reduction of plasma glucose levels", "setting": "diabetic db/db mice [2]; 3 hours post-dose, oral 10 mg/kg + 30 mg/kg sitagliptin", "value": 35, "unit": "%"}]}
{"smiles": "CCCCC1(CCCC)CS(=O)(=O)c2ccc(N(C)C)cc2[C@@H](c2ccc(OCCCC[N+]34CCN(CC3)CC4)cc2)[C@H]1O.CS(=O)(=O)[O-]", "note": "[Compound 100B, 1-[4-[4-[(4R,5R)-3,3-dibutyl-7-(dimethylamino)-2,3,4,5-tetrahydro-4-hydroxy-1,1-dioxido-1-benzothiepin-5-yl]phenoxy]butyl]4-aza-1-azoniabicyclo[2.2.2]octane methane sulfonate salt]", "values": [{"measurement": "plasma GLP-1 level, ASBTI in combination with sitagliptin", "setting": "plasma GLP-1 level; FIG. 6, 7", "value": "dose-dependent increase in plasma GLP-1 level"}, {"measurement": "plasma GLP-1 level, ASBTI in combination with sitagliptin", "setting": "plasma GLP-1 level; [5]", "value": "dose-dependent increase in plasma GLP-1 level; also recorded: elevation in GLP-1 levels in a dose-dependent manner"}, {"measurement": "plasma GLP-1 level, ASBTI alone", "setting": "plasma GLP-1 level; FIG. 6, 7", "value": "dose-dependent increase in plasma GLP-1 level"}, {"measurement": "plasma GLP-1 level, ASBTI alone", "setting": "plasma GLP-1 level; [5]", "value": "dose-dependent increase in plasma GLP-1 level; also recorded: elevation in GLP-1 levels in a dose-dependent manner"}, {"measurement": "change in body weight", "setting": "male db/db mice [3]; 24 h after administration, 3-100 mg/kg with 30 mg/kg sitagliptin, FIG. 8", "value": "Weight loss"}, {"measurement": "plasma glucose levels, ASBTI alone", "setting": "male db/db mice [3]; ASBTI alone, 3, 30, 100 mg/kg oral, FIG. 4", "value": "lowers plasma glucose levels in dose dependent manner"}, {"measurement": "reduction in plasma glucose from baseline", "setting": "male db/db mice [3]; 3 mg/kg + 30 mg/kg sitagliptin", "value": 5.6, "unit": "%"}, {"measurement": "reduction in plasma glucose from baseline", "setting": "male db/db mice [3]; 30 mg/kg + 30 mg/kg sitagliptin", "value": 15, "unit": "%"}, {"measurement": "reduction in plasma glucose from baseline", "setting": "male db/db mice [3]; 100 mg/kg + 30 mg/kg sitagliptin", "value": 42.3, "unit": "%"}, {"measurement": "reduction of the elevated blood glucose levels", "setting": "male db/db mice [3]; single oral administration, 3-100 mg/kg in combination with 30 mg/kg sitagliptin, compared to sitagliptin alone or vehicle, FIG. 2", "value": "dose-dependent reduction of the elevated blood glucose levels"}, {"measurement": "blood glucose lowering compared with exenatide", "setting": "diabetic db/db mice [2]; 3 hours after dosing, oral + 30 mg/kg sitagliptin versus single subcutaneous 0.02 mg/kg exenatide", "value": "reduces blood glucose levels more than a single subcutaneous injection of 0.02 mg/kg exenatide"}]}
{"smiles": "CN(C)C(=N)N=C(N)N", "note": "[metformin, reference compound]", "values": [{"measurement": "duration of reduced plasma glucose concentrations", "setting": "diabetic db/db mice [4]", "value": "about 6 hours"}, {"measurement": "plasma GLP-1 level, metformin in combination with sitagliptin", "setting": "plasma GLP-1 level; oral metformin 30, 100, 300 mg/kg + 30 mg/kg sitagliptin, FIG. 5", "value": "dose-dependent increase in plasma GLP-1 level; also recorded: elevation in GLP-1 levels in plasma"}]}
{"smiles": "N[C@@H](CC(=O)N1CCn2c(nnc2C(F)(F)F)C1)Cc1cc(F)c(F)cc1F", "note": "[sitagliptin, (3R)-3-amino-1-[9-(trifluoromethyl)-1,4,7,8-tetrazabicyclo[4.3.0]nona-6,8-dien-4-yl]-4-(2,4,5-trifluorophenyl)butan-1-one, reference compound]", "values": [{"measurement": "reduction in plasma glucose from baseline", "setting": "male db/db mice [1]; 0 mg/kg ASBTI + 30 mg/kg sitagliptin, oral", "value": 5.5, "unit": "%"}, {"measurement": "reduction in plasma glucose from baseline", "setting": "male db/db mice [3]; 0 mg/kg ASBTI + 30 mg/kg sitagliptin", "value": 5.5, "unit": "%"}]}
